Broadly, the inhibition is the percentage by which the read-out fell short of the control.

The text below walks through data of publication PMC6934184, “Selective DNA-PKcs inhibition extends the therapeutic index of localized radiotherapy and chemotherapy” (The Journal of Clinical Investigation, 2019).

The experiment deals with T1, RET (Homo sapiens, UniProt P07949).
T1 construct: purchased Thermo Fisher Scientific (Life Technologies) SelectScreen
Briefly: SelectScreen Z'LYTE. It is filed as biochemical. A digest of the protocol:
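Percent values come from Thermo SelectScreen profiling of NU5455, combining activity and binding assays. CSF1R was run in Z'LYTE format at Km app ATP, and CAMK1 in Adapta format with ATP listed at 10.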

T1 sequence (P07949 29-1114): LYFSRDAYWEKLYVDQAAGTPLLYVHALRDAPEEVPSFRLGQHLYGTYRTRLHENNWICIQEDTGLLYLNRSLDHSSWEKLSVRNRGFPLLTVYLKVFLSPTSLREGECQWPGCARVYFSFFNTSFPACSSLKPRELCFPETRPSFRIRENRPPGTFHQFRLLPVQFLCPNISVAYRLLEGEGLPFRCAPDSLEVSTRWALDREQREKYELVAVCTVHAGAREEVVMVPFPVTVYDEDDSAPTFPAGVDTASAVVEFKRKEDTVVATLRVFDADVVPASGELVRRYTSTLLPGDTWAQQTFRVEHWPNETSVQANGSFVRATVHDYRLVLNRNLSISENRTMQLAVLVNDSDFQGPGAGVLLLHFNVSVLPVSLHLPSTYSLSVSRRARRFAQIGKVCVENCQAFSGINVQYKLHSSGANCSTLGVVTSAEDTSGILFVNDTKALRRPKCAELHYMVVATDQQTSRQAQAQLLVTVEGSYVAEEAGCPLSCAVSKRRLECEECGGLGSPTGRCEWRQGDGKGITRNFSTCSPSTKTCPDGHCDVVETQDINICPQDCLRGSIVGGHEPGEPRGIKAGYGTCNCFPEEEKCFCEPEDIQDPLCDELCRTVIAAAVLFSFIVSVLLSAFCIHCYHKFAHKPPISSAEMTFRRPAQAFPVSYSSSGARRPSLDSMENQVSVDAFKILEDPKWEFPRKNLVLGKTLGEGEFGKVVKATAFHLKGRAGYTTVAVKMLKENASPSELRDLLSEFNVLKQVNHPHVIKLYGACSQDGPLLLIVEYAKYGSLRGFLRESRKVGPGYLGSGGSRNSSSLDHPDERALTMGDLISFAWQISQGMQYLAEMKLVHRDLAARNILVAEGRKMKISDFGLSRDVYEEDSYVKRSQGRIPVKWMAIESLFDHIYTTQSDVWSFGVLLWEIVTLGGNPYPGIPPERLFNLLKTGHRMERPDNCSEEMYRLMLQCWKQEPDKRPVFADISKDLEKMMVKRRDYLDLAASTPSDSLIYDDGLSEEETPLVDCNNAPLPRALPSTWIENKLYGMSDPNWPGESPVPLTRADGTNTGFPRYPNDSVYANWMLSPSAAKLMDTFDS

Turning to `CN(C(=O)CN1CCOCC1)c1ccc2sc3c(-c4cccc5c(=O)cc(N6CC7CCC(C6)O7)oc45)cccc3c2c1` [NU5455], the inhibition at 1 µM turned out to be 5.2%.
